Source: patent US20260297081A1, “COMPOUNDS AND METHODS OF TREATING CANCERS” (Cullgen Inc., priority 2023, published 2026)

Biological target: CDK4 (Homo sapiens, UniProt P11802+Q16531)
Assay: CDK4 percentage degradation in Calu-1 cells (Table 6)
Format: cell-based
Set-up: Cells that express cyclin D1-3 and CDK4/6 proteins were treated with heterobifunctional compounds; endogenous in cells; host or cells: Calu-1
Conditions: 16 hours; for inhibition at 0.04 µM: 40 nM; for inhibition at 0.2 µM: 200 nM
Method: Calu-(cells were treated with heterobifunctional compounds at 40 nM or 200 nM for 16 hours A: protein percentage degradation […]; B: protein percentage degradation <80%, and ≥50%; C: protein percentage degradation <50%, and ≥30%; D; protein percentage degradation […]; -, data not available.
Calu-1, T47D, MCF7, HCC1428 and other cells were cultured at 37° C. with 5% CO2 in RPMI 1640 or DMEM medium supplemented with 10% fetal bovine serum. Cells were authenticated using the short tandem repeat (STR) assays. Mycoplasma test results were negative. For palbo-resistant cell model, T47D cells were cultured long-term to resistance in the presence of 1 μM Palbociclib. Cells were deemed resistant when growing in the presence of Palbo at the same rate as parental cells.
Cultured cells were washed with cold PBS once and lysed in cold RIPA buffer supplemented with protease inhibitors and phosphatase inhibitors (Beyotime Biotechnology). The solutions were then incubated at 4 ? for 30 min with gentle agitation to fully lysed cells. Cell lysates were centrifuged at 13,000 rpm for 10 min at 4 ? and pellets were discarded. Total protein concentrations in the lysates were determined following BCA assays (Beyotime Biotechnology). Cell lysates were mixed with Laemmli loading buffer and heated at 99° C. for 5 min. Proteins were resolved on SDS-PAGE and visualized using Western ECL Substrate kits on a ChemiDoc MP Imaging system (Bio-Rad). Protein bands were quantitated using the Image Lab software provided by Bio-Rad.

Sequence of CDK4 (P11802 2-303 limits assumed): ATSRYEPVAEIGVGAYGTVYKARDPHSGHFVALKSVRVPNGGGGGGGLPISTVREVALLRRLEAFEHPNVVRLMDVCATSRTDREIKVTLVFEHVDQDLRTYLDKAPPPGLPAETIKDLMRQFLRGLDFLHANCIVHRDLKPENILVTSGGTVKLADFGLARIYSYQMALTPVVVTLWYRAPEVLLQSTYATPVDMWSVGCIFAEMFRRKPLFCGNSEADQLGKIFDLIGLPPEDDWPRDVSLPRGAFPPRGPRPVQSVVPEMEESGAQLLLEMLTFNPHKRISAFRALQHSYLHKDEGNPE
Sequence of CDK4 (P24385 whole entry partner): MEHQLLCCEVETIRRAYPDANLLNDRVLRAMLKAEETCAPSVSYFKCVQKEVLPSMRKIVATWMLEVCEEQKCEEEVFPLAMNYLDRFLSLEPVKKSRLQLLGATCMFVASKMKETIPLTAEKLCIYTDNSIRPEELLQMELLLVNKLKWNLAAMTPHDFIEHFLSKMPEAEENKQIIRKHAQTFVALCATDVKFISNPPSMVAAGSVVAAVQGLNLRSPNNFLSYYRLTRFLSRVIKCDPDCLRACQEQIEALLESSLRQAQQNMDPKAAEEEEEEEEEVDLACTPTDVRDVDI
Sequence of CDK4 (Q16531 2-1140 limits assumed): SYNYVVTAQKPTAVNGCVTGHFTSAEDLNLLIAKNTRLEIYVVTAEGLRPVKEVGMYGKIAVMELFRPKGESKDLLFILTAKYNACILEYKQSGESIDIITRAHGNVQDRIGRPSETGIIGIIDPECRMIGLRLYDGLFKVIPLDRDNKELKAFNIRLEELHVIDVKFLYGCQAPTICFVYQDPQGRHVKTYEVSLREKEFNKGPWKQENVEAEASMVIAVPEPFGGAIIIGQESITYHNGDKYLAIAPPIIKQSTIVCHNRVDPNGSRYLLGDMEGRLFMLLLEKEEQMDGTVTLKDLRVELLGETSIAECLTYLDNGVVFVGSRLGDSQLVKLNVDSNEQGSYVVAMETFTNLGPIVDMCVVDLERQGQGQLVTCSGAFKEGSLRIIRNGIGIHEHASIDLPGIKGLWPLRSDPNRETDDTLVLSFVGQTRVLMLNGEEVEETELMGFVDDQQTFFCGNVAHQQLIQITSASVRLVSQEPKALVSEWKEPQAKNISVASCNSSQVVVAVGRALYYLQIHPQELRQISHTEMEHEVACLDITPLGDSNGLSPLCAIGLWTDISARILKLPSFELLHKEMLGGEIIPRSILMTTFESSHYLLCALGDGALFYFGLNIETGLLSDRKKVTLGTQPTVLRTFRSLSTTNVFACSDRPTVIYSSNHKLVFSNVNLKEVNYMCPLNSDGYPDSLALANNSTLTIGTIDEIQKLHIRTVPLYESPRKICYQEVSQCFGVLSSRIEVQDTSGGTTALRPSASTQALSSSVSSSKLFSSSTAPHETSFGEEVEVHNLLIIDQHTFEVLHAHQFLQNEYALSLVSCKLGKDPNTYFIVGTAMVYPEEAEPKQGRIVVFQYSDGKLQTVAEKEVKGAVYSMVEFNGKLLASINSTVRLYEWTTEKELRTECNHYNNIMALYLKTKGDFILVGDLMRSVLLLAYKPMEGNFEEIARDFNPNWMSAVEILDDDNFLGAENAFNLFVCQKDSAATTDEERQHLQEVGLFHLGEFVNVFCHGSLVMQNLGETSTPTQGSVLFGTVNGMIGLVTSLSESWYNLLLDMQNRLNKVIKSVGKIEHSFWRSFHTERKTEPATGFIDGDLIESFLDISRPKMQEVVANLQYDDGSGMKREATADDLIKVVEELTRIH

inhibition at 0.04 µM	inhibition at 0.2 µM	SMILES
< 30%	30 to 50%	CC(=O)c1c(C)c2cnc(Nc3ccc(N4CCN(CC(=O)NCCCNc5nc(C)ccc5C(=O)Nc5nc(C)c(C)s5)CC4)cn3)nc2n(C2CCCC2)c1=O [CPD-1, 2-((3-(2-(4-(6-((6-Acetyl-8-cyclopentyl-5-methyl-7-oxo-7,8-dihydropyrido[2,3-d]pyrimidin-2-yl)amino)pyridin-3-yl)piperazin-1-yl)acetamido)propyl)amino)-N-(4,5-dimethylthiazol-2-yl)-6-methylnicotinamide]
50 to 80%	> 80%	COc1ccc(NC(=O)c2ccc(C)nc2NCCCCCCCNC(=O)CN2CCN(c3ccc(Nc4ncc5c(C)c(C(C)=O)c(=O)n(C6CCCC6)c5n4)nc3)CC2)nn1 [CPD-2, 2-((7-(2-(4-(6-((6-acetyl-8-cyclopentyl-5-methyl-7-oxo-7,8-dihydropyrido[2,3-d]pyrimidin-2-yl)amino)pyridin-3-yl)piperazin-1-yl)acetamido)heptyl)amino)-N-(6-methoxypyridazin-3-yl)-6-methylnicotinamide]
50 to 80%	50 to 80%	CC(=O)c1c(C)c2cnc(Nc3ccc(N4CCN(CC(=O)NCCCCCNc5nc(C)ccc5C(=O)Nc5nc(C)c(C)s5)CC4)cn3)nc2n(C2CCCC2)c1=O [CPD-3, 2-((5-(2-(4-(6-((6-acetyl-8-cyclopentyl-5-methyl-7-oxo-7,8-dihydropyrido[2,3-d]pyrimidin-2-yl)amino)pyridin-3-yl)piperazin-1-yl)acetamido)pentyl)amino)-N-(4,5-dimethylthiazol-2-yl)-6-methylnicotinamide]
50 to 80%	–	CNc1ccc(C(=O)Nc2ccc(C)c(C3CC3)n2)c(NCCCCCCCNC(=O)CN2CCN(c3ccc(Nc4ncc5c(C)c(C(C)=O)c(=O)n(C6CCCC6)c5n4)nc3)CC2)n1 [CPD-6, 2-((7-(2-(4-(6-((6-acetyl-8-cyclopentyl-5-methyl-7-oxo-7,8-dihydropyrido[2,3-d]pyrimidin-2-yl)amino)pyridin-3-yl)piperazin-1-yl)acetamido)heptyl)amino)-N-(6-cyclopropyl-5-methylpyridin-2-yl)-6-(methylamino)nicotinamide]
50 to 80%	–	CNc1ccc(C(=O)Nc2ccc(C)c(C3CC3)n2)c(NCCCCCNC(=O)CN2CCN(c3ccc(Nc4ncc5c(C)c(C(C)=O)c(=O)n(C6CCCC6)c5n4)nc3)CC2)n1 [CPD-7, 2-((5-(2-(4-(6-((6-acetyl-8-cyclopentyl-5-methyl-7-oxo-7,8-dihydropyrido[2,3-d]pyrimidin-2-yl)amino)pyridin-3-yl)piperazin-1-yl)acetamido)pentyl)amino)-N-(6-cyclopropyl-5-methylpyridin-2-yl)-6-(methylamino)nicotinamide]
50 to 80%	> 80%	CC(=O)c1c(C)c2cnc(Nc3ccc(N4CCN(CC(=O)NCCCCCCCNc5nc(C)ccc5C(=O)Nc5ccc(C)c(C6CC6)n5)CC4)cn3)nc2n(C2CCCC2)c1=O [CPD-9, 2-((7-(2-(4-(6-((6-acetyl-8-cyclopentyl-5-methyl-7-oxo-7,8-dihydropyrido[2,3-d]pyrimidin-2-yl)amino)pyridin-3-yl)piperazin-1-yl)acetamido)heptyl)amino)-N-(6-cyclopropyl-5-methylpyridin-2-yl)-6-methylnicotinamide]
< 30%	< 30%	CNc1ccc(C(=O)Nc2ccc(C(C)C)nn2)c(NCCCCCNC(=O)CN2CCN(c3ccc(Nc4ncc5c(C)c(C(C)=O)c(=O)n(C6CCCC6)c5n4)nc3)CC2)n1 [CPD-15, 2-((5-(2-(4-(6-((6-Acetyl-8-cyclopentyl-5-methyl-7-oxo-7,8-dihydropyrido[2,3-d]pyrimidin-2-yl)amino)pyridin-3-yl)piperazin-1-yl)acetamido)pentyl)amino)-N-(6-isopropylpyridazin-3-yl)-6-(methylamino)nicotinamide]
< 30%	30 to 50%	CNc1ccc(C(=O)Nc2ccc(N3CCCC3)nn2)c(NCCCCCNC(=O)CN2CCN(c3ccc(Nc4ncc5c(C)c(C(C)=O)c(=O)n(C6CCCC6)c5n4)nc3)CC2)n1 [CPD-17, 2-((5-(2-(4-(6-((6-Acetyl-8-cyclopentyl-5-methyl-7-oxo-7,8-dihydropyrido[2,3-d]pyrimidin-2-yl)amino)pyridin-3-yl)piperazin-1-yl)acetamido)pentyl)amino)-6-(methylamino)-N-(6-(pyrrolidin-1-yl)pyridazin-3-yl)nicotinamide]
< 30%	–	CNc1ccc(C(=O)Nc2ccc(C(F)(F)F)nn2)c(NCCCCCNC(=O)CN2CCN(c3ccc(Nc4ncc5c(C)c(C(C)=O)c(=O)n(C6CCCC6)c5n4)nc3)CC2)n1 [CPD-19, 2-((5-(2-(4-(6-((6-Acetyl-8-cyclopentyl-5-methyl-7-oxo-7,8-dihydropyrido[2,3-d]pyrimidin-2-yl)amino)pyridin-3-yl)piperazin-1-yl)acetamido)pentyl)amino)-6-(methylamino)-N-(6-(trifluoromethyl)pyridazin-3-yl)nicotinamide]
< 30%	–	CNc1ccc(C(=O)Nc2ccc(Cl)cn2)c(NCCCCCNC(=O)CN2CCN(c3ccc(Nc4ncc5c(C)c(C(C)=O)c(=O)n(C6CCCC6)c5n4)nc3)CC2)n1 [CPD-20, 2-((5-(2-(4-(6-((6-acetyl-8-cyclopentyl-5-methyl-7-oxo-7,8-dihydropyrido[2,3-d]pyrimidin-2-yl)amino)pyridin-3-yl)piperazin-1-yl)acetamido)pentyl)amino)-N-(5-chloropyridin-2-yl)-6-(methylamino)nicotinamide]
< 30%	< 30%	CNc1ccc(C(=O)Nc2ccc(N(C)C)nn2)c(N(C)CCCCCNC(=O)CN2CCN(c3ccc(Nc4ncc5c(C)c(C(C)=O)c(=O)n(C6CCCC6)c5n4)nc3)CC2)n1 [CPD-23, 2-((5-(2-(4-(6-((6-Acetyl-8-cyclopentyl-5-methyl-7-oxo-7,8-dihydropyrido[2,3-d]pyrimidin-2-yl)amino)pyridin-3-yl)piperazin-1-yl)acetamido)pentyl)(methyl)amino)-N-(6-(dimethylamino)pyridazin-3-yl)-6-(methylamino)nicotinamide]
< 30%	50 to 80%	CNc1ccc(C(=O)Nc2ccc(N(C)C)nn2)c(Nc2cnn(CCNC(=O)CN3CCN(c4ccc(Nc5ncc6c(C)c(C(C)=O)c(=O)n(C7CCCC7)c6n5)nc4)CC3)n2)n1 [CPD-25, 2-((2-(2-(2-(4-(6-((6-Acetyl-8-cyclopentyl-5-methyl-7-oxo-7,8-dihydropyrido[2,3-d]pyrimidin-2-yl)amino)pyridin-3-yl)piperazin-1-yl)acetamido)ethyl)-2H-1,2,3-triazol-4-yl)amino)-N-(6-(dimethylamino)pyridazin-3-yl)-6-(methylamino)nicotinamide]
< 30%	50 to 80%	CNc1ccc(C(=O)Nc2ccc(C3CC3)nn2)c(NCCCCCNC(=O)CN2CCN(c3ccc(Nc4ncc5c(C)c(C(C)=O)c(=O)n(C6CCCC6)c5n4)nc3)CC2)n1 [CPD-31, 2-((5-(2-(4-(6-((6-Acetyl-8-cyclopentyl-5-methyl-7-oxo-7,8-dihydropyrido[2,3-d]pyrimidin-2-yl)amino)pyridin-3-yl)piperazin-1-yl)acetamido)pentyl)amino)-N-(6-cyclopropylpyridazin-3-yl)-6-(methylamino)nicotinamide]
< 30%	< 30%	CNc1ccc(C(=O)Nc2ccc3c(cnn3C)n2)c(NCCCCCNC(=O)CN2CCN(c3ccc(Nc4ncc5c(C)c(C(C)=O)c(=O)n(C6CCCC6)c5n4)nc3)CC2)n1 [CPD-32]
30 to 50%	50 to 80%	CNc1ccc(C(=O)Nc2ccc(N(C)C)nn2)c(NCCCCC(=O)NCCN2CCN(c3ccc(Nc4ncc5c(C)c(C(C)=O)c(=O)n(C6CCCC6)c5n4)nc3)CC2)n1 [CPD-36, 2-((5-((2-(4-(6-((6-Acetyl-8-cyclopentyl-5-methyl-7-oxo-7,8-dihydropyrido[2,3-d]pyrimidin-2-yl)amino)pyridin-3-yl)piperazin-1-yl)ethyl)amino)-5-oxopentyl)amino)-N-(6-(dimethylamino)pyridazin-3-yl)-6-(methylamino)nicotinamide]
50 to 80%	50 to 80%	CNc1ccc(C(=O)Nc2ccc3c(n2)CCC3)c(NCCCCCNC(=O)CN2CCN(c3ccc(Nc4ncc5c(C)c(C(C)=O)c(=O)n(C6CCCC6)c5n4)nc3)CC2)n1 [CPD-40, 2-((5-(2-(4-(6-((6-Acetyl-8-cyclopentyl-5-methyl-7-oxo-7,8-dihydropyrido[2,3-d]pyrimidin-2-yl)amino)pyridin-3-yl)piperazin-1-yl)acetamido)pentyl)amino)-N-(6,7-dihydro-5H-cyclopenta[b]pyridin-2-yl)-6-(methylamino)nicotinamide]
30 to 50%	50 to 80%	CNc1ccc(C(=O)Nc2ccc(N(C)C)nn2)c(NCCC2CC(NC(=O)CN3CCN(c4ccc(Nc5ncc6c(C)c(C(C)=O)c(=O)n(C7CCCC7)c6n5)nc4)CC3)C2)n1 (stereo not drawn) [CPD-41, 2-((2-(3-(2-(4-(6-((6-Acetyl-8-cyclopentyl-5-methyl-7-oxo-7,8-dihydropyrido[2,3-d]pyrimidin-2-yl)amino)pyridin-3-yl)piperazin-1-yl)acetamido)cyclobutyl)ethyl)amino)-N-(6-(dimethylamino)pyridazin-3-yl)-6-(methylamino)nicotinamide]
